Test system: Human gammaherpesvirus 4
Assay: Inhibition of TPA-induced Epstein-Barr virus early antigen activation assessed as EBV-EA induction in Raji cells at 32 nM after 48 hrs relative to TPA; values are per cent of control
Conditions: human gammaherpesvirus 4, Raji

With C=C(CC[C@@H](C)[C@H]1CC[C@@]2(C)[C@@H]3CC[C@H]4[C@@H](C)[C@@H](O)CC[C@@]45C[C@@]35CC[C@]12C)C(C)C as the molecule, how does the level, % of control at 0.032 µM read?
Its level, % of control at 0.032 µM is 29.9%.

With CC(C)=CCC[C@@H](C)[C@H]1CC[C@@]2(C)[C@@H]3CC[C@H]4[C@H](C)[C@@H](O)CC[C@@]45C[C@@]35CC[C@]12C as the molecule, how does the level, % of control at 0.032 µM read?
The level, % of control at 0.032 µM was 30.2%.

Which level, % of control at 0.032 µM does the source give for C=C(CC[C@@H](C)[C@H]1CC[C@@]2(C)[C@@H]3CC[C@H]4[C@H](C)C(=O)CC[C@@]45C[C@@]35CC[C@]12C)C(C)C [CYCLOEUCALENONE] here?
The level, % of control at 0.032 µM was 33.4%.

Which level, % of control at 0.032 µM does the source give for COc1cc(/C=C/C(=O)O[C@H]2CC[C@]34C[C@]35CC[C@]3(C)[C@@H]([C@H](C)CCC=C(C)C)CC[C@@]3(C)[C@@H]5CC[C@H]4C2(C)C)ccc1O [GAMMA ORYZANOL] here?
Its level, % of control at 0.032 µM is 56%.

With CC(C)C(C)CC[C@@H](C)[C@H]1CC[C@@]2(C)[C@@H]3CC[C@H]4[C@H](C)[C@@H](O)CC[C@@]45C[C@@]35CC[C@]12C (some centres not stated) as the molecule, how does the level, % of control at 0.032 µM read?
The level, % of control at 0.032 µM was 31.8%.

Which level, % of control at 0.032 µM does the source give for CC(C)CCC[C@@H](C)[C@H]1CC[C@@]2(C)[C@@H]3CC[C@H]4C[C@@H](O)CC[C@@]45C[C@@]35CC[C@]12C [POLLINASTANOL] here?
Its level, % of control at 0.032 µM is 31.7%.

Test system: Human gammaherpesvirus 4
Assay: Inhibition of TPA-induced Epstein-Barr virus early antigen activation assessed as EBV-EA induction in Raji cells at 320 nM after 48 hrs relative to TPA; values are per cent of control
Conditions: human gammaherpesvirus 4, Raji

With C=C(CC[C@@H](C)[C@H]1CC[C@@]2(C)[C@@H]3CC[C@H]4[C@@H](C)[C@@H](O)CC[C@@]45C[C@@]35CC[C@]12C)C(C)C as the molecule, how does the level, % of control at 0.32 µM read?
The level, % of control at 0.32 µM was 0%.

With CC(C)=CCC[C@@H](C)[C@H]1CC[C@@]2(C)[C@@H]3CC[C@H]4[C@H](C)[C@@H](O)CC[C@@]45C[C@@]35CC[C@]12C as the molecule, how does the level, % of control at 0.32 µM read?
Its level, % of control at 0.32 µM is 0%.

For C=C(CC[C@@H](C)[C@H]1CC[C@@]2(C)[C@@H]3CC[C@H]4[C@H](C)C(=O)CC[C@@]45C[C@@]35CC[C@]12C)C(C)C [CYCLOEUCALENONE], which level, % of control at 0.32 µM is on record?
The level, % of control at 0.32 µM was 0%.

With COc1cc(/C=C/C(=O)O[C@H]2CC[C@]34C[C@]35CC[C@]3(C)[C@@H]([C@H](C)CCC=C(C)C)CC[C@@]3(C)[C@@H]5CC[C@H]4C2(C)C)ccc1O [GAMMA ORYZANOL] as the molecule, how does the level, % of control at 0.32 µM read?
The level, % of control at 0.32 µM was 19.7%.

For CC(C)C(C)CC[C@@H](C)[C@H]1CC[C@@]2(C)[C@@H]3CC[C@H]4[C@H](C)[C@@H](O)CC[C@@]45C[C@@]35CC[C@]12C (some centres not stated), which level, % of control at 0.32 µM is on record?
Its level, % of control at 0.32 µM is 0%.

With CC(C)CCC[C@@H](C)[C@H]1CC[C@@]2(C)[C@@H]3CC[C@H]4C[C@@H](O)CC[C@@]45C[C@@]35CC[C@]12C [POLLINASTANOL] as the molecule, how does the level, % of control at 0.32 µM read?
Its level, % of control at 0.32 µM is 0%.

Test system: not listed separately
Assay: Scavenging activity against NO generation in human Chang liver cells assessed as inhibition of NOR1-activation at 350 nM relative to NOR1
Type: functional
Conditions: not given

Which Activity does the source give for C=C(CC[C@@H](C)[C@H]1CC[C@@]2(C)[C@@H]3CC[C@H]4[C@@H](C)[C@@H](O)CC[C@@]45C[C@@]35CC[C@]12C)C(C)C here?
The Activity was 1.5.

With CC(C)=CCC[C@@H](C)[C@H]1CC[C@@]2(C)[C@@H]3CC[C@H]4[C@H](C)[C@@H](O)CC[C@@]45C[C@@]35CC[C@]12C as the molecule, how does the Activity read?
Its Activity is 1.8.

For C=C(CC[C@@H](C)[C@H]1CC[C@@]2(C)[C@@H]3CC[C@H]4[C@H](C)C(=O)CC[C@@]45C[C@@]35CC[C@]12C)C(C)C [CYCLOEUCALENONE], which Activity is on record?
Its Activity is 1.5.

Which Activity does the source give for COc1cc(/C=C/C(=O)O[C@H]2CC[C@]34C[C@]35CC[C@]3(C)[C@@H]([C@H](C)CCC=C(C)C)CC[C@@]3(C)[C@@H]5CC[C@H]4C2(C)C)ccc1O [GAMMA ORYZANOL] here?
The Activity was 1.5.

For CC(C)C(C)CC[C@@H](C)[C@H]1CC[C@@]2(C)[C@@H]3CC[C@H]4[C@H](C)[C@@H](O)CC[C@@]45C[C@@]35CC[C@]12C (some centres not stated), which Activity is on record?
Its Activity is 1.6.

For CC(C)CCC[C@@H](C)[C@H]1CC[C@@]2(C)[C@@H]3CC[C@H]4C[C@@H](O)CC[C@@]45C[C@@]35CC[C@]12C [POLLINASTANOL], which Activity is on record?
Its Activity is 1.5.

Test system: Human gammaherpesvirus 4
Assay: Inhibition of TPA-induced Epstein-Barr virus early antigen activation assessed as EBV-EA induction in Raji cells at 0.32 nM after 48 hrs relative to TPA; values are per cent of control
Conditions: human gammaherpesvirus 4, Raji

With C=C(CC[C@@H](C)[C@H]1CC[C@@]2(C)[C@@H]3CC[C@H]4[C@@H](C)[C@@H](O)CC[C@@]45C[C@@]35CC[C@]12C)C(C)C as the molecule, how does the level, % of control at 0.00032 µM read?
The level, % of control at 0.00032 µM was 95.1%.

Which level, % of control at 0.00032 µM does the source give for CC(C)=CCC[C@@H](C)[C@H]1CC[C@@]2(C)[C@@H]3CC[C@H]4[C@H](C)[C@@H](O)CC[C@@]45C[C@@]35CC[C@]12C here?
Its level, % of control at 0.00032 µM is 94.6%.

For C=C(CC[C@@H](C)[C@H]1CC[C@@]2(C)[C@@H]3CC[C@H]4[C@H](C)C(=O)CC[C@@]45C[C@@]35CC[C@]12C)C(C)C [CYCLOEUCALENONE], which level, % of control at 0.00032 µM is on record?
The level, % of control at 0.00032 µM was 96.2%.

With COc1cc(/C=C/C(=O)O[C@H]2CC[C@]34C[C@]35CC[C@]3(C)[C@@H]([C@H](C)CCC=C(C)C)CC[C@@]3(C)[C@@H]5CC[C@H]4C2(C)C)ccc1O [GAMMA ORYZANOL] as the molecule, how does the level, % of control at 0.00032 µM read?
The level, % of control at 0.00032 µM was 100%.

With CC(C)C(C)CC[C@@H](C)[C@H]1CC[C@@]2(C)[C@@H]3CC[C@H]4[C@H](C)[C@@H](O)CC[C@@]45C[C@@]35CC[C@]12C (some centres not stated) as the molecule, how does the level, % of control at 0.00032 µM read?
The level, % of control at 0.00032 µM was 96.8%.

With CC(C)CCC[C@@H](C)[C@H]1CC[C@@]2(C)[C@@H]3CC[C@H]4C[C@@H](O)CC[C@@]45C[C@@]35CC[C@]12C [POLLINASTANOL] as the molecule, how does the level, % of control at 0.00032 µM read?
The level, % of control at 0.00032 µM was 95.9%.

Test system: Raji
Assay: Cell viability of Raji cells at 320 nM
Type: functional, Homo sapiens
Conditions: not given

Which Activity does the source give for C=C(CC[C@@H](C)[C@H]1CC[C@@]2(C)[C@@H]3CC[C@H]4[C@@H](C)[C@@H](O)CC[C@@]45C[C@@]35CC[C@]12C)C(C)C here?
The Activity was 70%.

Which Activity does the source give for CC(C)=CCC[C@@H](C)[C@H]1CC[C@@]2(C)[C@@H]3CC[C@H]4[C@H](C)[C@@H](O)CC[C@@]45C[C@@]35CC[C@]12C here?
Its Activity is 70%.

For C=C(CC[C@@H](C)[C@H]1CC[C@@]2(C)[C@@H]3CC[C@H]4[C@H](C)C(=O)CC[C@@]45C[C@@]35CC[C@]12C)C(C)C [CYCLOEUCALENONE], which Activity is on record?
Its Activity is 70%.

For COc1cc(/C=C/C(=O)O[C@H]2CC[C@]34C[C@]35CC[C@]3(C)[C@@H]([C@H](C)CCC=C(C)C)CC[C@@]3(C)[C@@H]5CC[C@H]4C2(C)C)ccc1O [GAMMA ORYZANOL], which Activity is on record?
Its Activity is 70%.

With CC(C)C(C)CC[C@@H](C)[C@H]1CC[C@@]2(C)[C@@H]3CC[C@H]4[C@H](C)[C@@H](O)CC[C@@]45C[C@@]35CC[C@]12C (some centres not stated) as the molecule, how does the Activity read?
Its Activity is 70%.

With CC(C)CCC[C@@H](C)[C@H]1CC[C@@]2(C)[C@@H]3CC[C@H]4C[C@@H](O)CC[C@@]45C[C@@]35CC[C@]12C [POLLINASTANOL] as the molecule, how does the Activity read?
Its Activity is 70%.

Test system: Human gammaherpesvirus 4
Assay: Inhibition of TPA-induced Epstein-Barr virus early antigen activation assessed as EBV-EA induction in Raji cells at 3.2 nM after 48 hrs relative to TPA; values are per cent of control
Conditions: human gammaherpesvirus 4, Raji

Which level, % of control at 0.0032 µM does the source give for C=C(CC[C@@H](C)[C@H]1CC[C@@]2(C)[C@@H]3CC[C@H]4[C@@H](C)[C@@H](O)CC[C@@]45C[C@@]35CC[C@]12C)C(C)C here?
Its level, % of control at 0.0032 µM is 72%.

With CC(C)=CCC[C@@H](C)[C@H]1CC[C@@]2(C)[C@@H]3CC[C@H]4[C@H](C)[C@@H](O)CC[C@@]45C[C@@]35CC[C@]12C as the molecule, how does the level, % of control at 0.0032 µM read?
Its level, % of control at 0.0032 µM is 71.4%.

Which level, % of control at 0.0032 µM does the source give for C=C(CC[C@@H](C)[C@H]1CC[C@@]2(C)[C@@H]3CC[C@H]4[C@H](C)C(=O)CC[C@@]45C[C@@]35CC[C@]12C)C(C)C [CYCLOEUCALENONE] here?
Its level, % of control at 0.0032 µM is 74%.

For COc1cc(/C=C/C(=O)O[C@H]2CC[C@]34C[C@]35CC[C@]3(C)[C@@H]([C@H](C)CCC=C(C)C)CC[C@@]3(C)[C@@H]5CC[C@H]4C2(C)C)ccc1O [GAMMA ORYZANOL], which level, % of control at 0.0032 µM is on record?
Its level, % of control at 0.0032 µM is 84.7%.

With CC(C)C(C)CC[C@@H](C)[C@H]1CC[C@@]2(C)[C@@H]3CC[C@H]4[C@H](C)[C@@H](O)CC[C@@]45C[C@@]35CC[C@]12C (some centres not stated) as the molecule, how does the level, % of control at 0.0032 µM read?
Its level, % of control at 0.0032 µM is 73.4%.

With CC(C)CCC[C@@H](C)[C@H]1CC[C@@]2(C)[C@@H]3CC[C@H]4C[C@@H](O)CC[C@@]45C[C@@]35CC[C@]12C [POLLINASTANOL] as the molecule, how does the level, % of control at 0.0032 µM read?
Its level, % of control at 0.0032 µM is 73.1%.

Test system: Human gammaherpesvirus 4
Assay: Inhibition of TPA-induced Epstein-Barr virus early antigen activation in Raji cells after 48 hrs
Type: functional, organism-based
Conditions: human gammaherpesvirus 4, Raji

For C=C(CC[C@@H](C)[C@H]1CC[C@@]2(C)[C@@H]3CC[C@H]4[C@@H](C)[C@@H](O)CC[C@@]45C[C@@]35CC[C@]12C)C(C)C, which IC50 is on record?
The IC50 was 9.5 nM.

With CC(C)=CCC[C@@H](C)[C@H]1CC[C@@]2(C)[C@@H]3CC[C@H]4[C@H](C)[C@@H](O)CC[C@@]45C[C@@]35CC[C@]12C as the molecule, how does the IC50 read?
Its IC50 is 9.5 nM.

With C=C(CC[C@@H](C)[C@H]1CC[C@@]2(C)[C@@H]3CC[C@H]4[C@H](C)C(=O)CC[C@@]45C[C@@]35CC[C@]12C)C(C)C [CYCLOEUCALENONE] as the molecule, how does the IC50 read?
The IC50 was 10.3 nM.

For COc1cc(/C=C/C(=O)O[C@H]2CC[C@]34C[C@]35CC[C@]3(C)[C@@H]([C@H](C)CCC=C(C)C)CC[C@@]3(C)[C@@H]5CC[C@H]4C2(C)C)ccc1O [GAMMA ORYZANOL], which IC50 is on record?
Its IC50 is 15.9 nM.

Which IC50 does the source give for CC(C)C(C)CC[C@@H](C)[C@H]1CC[C@@]2(C)[C@@H]3CC[C@H]4[C@H](C)[C@@H](O)CC[C@@]45C[C@@]35CC[C@]12C (some centres not stated) here?
Its IC50 is 10 nM.

With CC(C)CCC[C@@H](C)[C@H]1CC[C@@]2(C)[C@@H]3CC[C@H]4C[C@@H](O)CC[C@@]45C[C@@]35CC[C@]12C [POLLINASTANOL] as the molecule, how does the IC50 read?
Its IC50 is 9.9 nM.
